Key:
Experiment in all cases: radiolabelled uptake in Xenopus oocytes
Type in all cases: cell-based
SsAqp14 [1] = target: T1, SsAqp14 (Salmo salar, UniProt A0A6B9KBC3); conditions: 1 mM urea, isotonic, pH 7.5; labelled compound; channel transport
T1 construct: full-length cDNA from kidney RNA in pT7Ts; Xenopus laevis oocytes (15 ng cRNA)
T1 sequence (A0A6B9KBC3 1-277): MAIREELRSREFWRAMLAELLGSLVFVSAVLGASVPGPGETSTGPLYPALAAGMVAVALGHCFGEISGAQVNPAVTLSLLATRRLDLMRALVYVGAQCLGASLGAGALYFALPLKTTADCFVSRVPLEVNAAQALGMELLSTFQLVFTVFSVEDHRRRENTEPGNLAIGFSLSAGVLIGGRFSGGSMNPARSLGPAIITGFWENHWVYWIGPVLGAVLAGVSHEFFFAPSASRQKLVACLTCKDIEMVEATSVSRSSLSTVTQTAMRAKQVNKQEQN

DrAqp14 [2] = target: T2, DrAqp14 (Danio rerio, UniProt A0A0G2L4D1); conditions: 1 mM urea, isotonic, pH 7.5; labelled compound; channel transport
T2 construct: full-length cDNA from brain RNA in pT7Ts; Xenopus laevis oocytes (15 ng cRNA)
T2 sequence (A0A0G2L4D1 1-277): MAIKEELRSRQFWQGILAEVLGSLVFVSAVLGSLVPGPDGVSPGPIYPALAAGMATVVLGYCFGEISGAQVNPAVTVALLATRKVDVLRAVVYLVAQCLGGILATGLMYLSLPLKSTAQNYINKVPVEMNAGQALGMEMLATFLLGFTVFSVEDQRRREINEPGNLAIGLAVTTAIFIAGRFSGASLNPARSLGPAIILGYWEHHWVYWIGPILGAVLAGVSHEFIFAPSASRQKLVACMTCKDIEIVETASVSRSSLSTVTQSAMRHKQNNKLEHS

SaAqp14 [3] = target: T3, SaAqp14 (Sparus aurata, UniProt A0A6B9KHM1); conditions: 1 mM urea, isotonic, pH 7.5; labelled compound; channel transport
T3 construct: full-length cDNA from brain RNA in pT7Ts; Xenopus laevis oocytes (15 ng cRNA); residues 261-276 TQNAMRAKQANKQENN
T3 sequence (A0A6B9KHM1 1-276): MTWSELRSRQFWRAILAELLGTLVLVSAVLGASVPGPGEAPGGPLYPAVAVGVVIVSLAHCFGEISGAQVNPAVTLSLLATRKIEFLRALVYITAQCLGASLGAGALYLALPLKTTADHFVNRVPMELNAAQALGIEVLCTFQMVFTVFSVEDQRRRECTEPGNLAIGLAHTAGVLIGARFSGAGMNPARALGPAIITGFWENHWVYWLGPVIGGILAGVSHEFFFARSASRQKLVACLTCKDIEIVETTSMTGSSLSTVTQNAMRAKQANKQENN

SaAqp14 [4] = target: T3, SaAqp14; conditions: 1 mM glycerol, isotonic, pH 7.5; labelled compound; channel transport
DrAqp14 [5] = target: T2, DrAqp14; conditions: 1 mM glycerol, isotonic, pH 7.5; labelled compound; channel transport
SsAqp14 [6] = target: T1, SsAqp14; conditions: 1 mM glycerol, isotonic, pH 7.5; labelled compound; channel transport

| SMILES | urea uptake (SsAqp14 [1]) | urea uptake (DrAqp14 [2]) | urea uptake (SaAqp14 [3]) | glycerol uptake (SaAqp14 [4]) | glycerol uptake (DrAqp14 [5]) | glycerol uptake (SsAqp14 [6]) |
| --- | --- | --- | --- | --- | --- | --- |
| NC(N)=O [urea] | Oocytes injected with SaAqp14 and SsAqp14 are also slightly permeable to glycerol, urea | oocytes expressing DrAqp14 are highly permeable to urea and hydrogen peroxide | Oocytes injected with SaAqp14 and SsAqp14 are also slightly permeable to glycerol, urea | – | – | – |
| OCC(O)CO [glycerol] | – | – | – | Oocytes injected with SaAqp14 and SsAqp14 are also slightly permeable to glycerol, urea | as for SaAqp14 and SsAqp14 show a lesser permeability to glycerol and methylamine | Oocytes injected with SaAqp14 and SsAqp14 are also slightly permeable to glycerol, urea |
